In paper PMC6286156 (Cell Calcium, 2018):
Structures can show the parent of a compound that is named as a salt.

What was measured:
[1] = tested on: NAADP-evoked Ca^2+ release; type: biochemical, Strongylocentrotus purpuratus; settings: for IC50: read-out: IC50 for inhibition of NAADP-evoked Ca2+ release; for 2° Screen (sea urchin) Ca^2+ release log(IC50): printed as log(IC50), negative values, molar implied, NAADP 70 nM
[2] = tested on: lysosomal Ca^2+ content, U2OS cells; assay: Counterscreen: GPN-evoked lysosomal Ca2+ release; type: cell-based, human; settings: for Effect on GPN-mobilizable Ca2+ and LysoTracker (LTR) staining (in words) / Counterscreen (human cells) Ca^2+ release (% GPN): drug 30 μM; for Counterscreen (human cells) Ca^2+ release (% GPN): GPN 300 μM, peak fluo-4 F/F0; for activity at 30 µM: Homo sapiens, read-out: Counterscreen (human cells) Ca^2+ release (% GPN)
[3] = tested on: specific ^32P-NAADP binding in sea urchin egg homogenates; assay: 32P-NAADP radioligand binding in sea urchin egg homogenate; parameters: species or system Strongylocentrotus purpuratus; settings: drug 30 μM, specific 32P-NAADP binding relative to vehicle
[4] = tested on: NAADP-evoked Ca^2+ release; assay: Primary screen of NAADP-evoked Ca2+ release in sea urchin egg homogenate; type: biochemical, Strongylocentrotus purpuratus; settings: for 1° Screen (sea urchin) Ca^2+ release (% NAADP): peak NAADP-evoked Ca2+ release as % of control NAADP response: compound 25 μM, 6 min preincubation, NAADP 167 nM; for Effect on NAADP-evoked Ca2+ signal in primary screen (in words): 25 μM
[5] = tested on: lysosomal labelling (LysoTracker Red), U2OS cells; assay: Counterscreen: LysoTracker Red; type: cell-based, human; settings: for Counterscreen (human cells) LTR signal (% control): drug 30 μM, minimum LTR F/F0 before GPN; for activity at 30 µM: Homo sapiens, read-out: Counterscreen (human cells) LTR signal (% control)
[6] = tested on: cADPR-evoked Ca^2+ release; type: biochemical, Strongylocentrotus purpuratus
IP3-evoked Ca^2+ release = type: biochemical, Strongylocentrotus purpuratus
[7] = tested on: NAADP-evoked Ca^2+ signals; settings: cited from earlier work

COc1ccc([C@H]2N[C@H](C(=O)O)Cc3c2[nH]c2ccccc32)cc1CN1CCN(c2ccccc2F)CC1 (relative stereo) [trans-ned-19, trans-Ned-19]
IC50 [1]: 156 ± 3 µM

CCS(=O)(=O)Nc1cccc(C(=C2CCCCC2)c2cnc[nH]2)c1 [A-315456]
Effect on GPN-mobilizable Ca2+ and LysoTracker (LTR) staining (in words) [2]: no effect
Counterscreen (human cells) Ca^2+ release (% GPN) [2]: 97.1 ± 3%
2° Screen (sea urchin) NAADP binding (% inhibition) [3]: 8.4 ± 1.2%
2° Screen (sea urchin) Ca^2+ release log(IC50) [1]: −4.44 ± 0.01
1° Screen (sea urchin) Ca^2+ release (% NAADP): peak NAADP-evoked Ca2+ release as % of control NAADP response [4]: 13.0 ± 5.0%
Counterscreen (human cells) LTR signal (% control) [5]: 95.2 ± 4%

CN1CCC[C@@H]1CCO[C@](C)(c1ccccc1)c1ccc(Cl)cc1 [Clemastine fumarate, clemastine fumarate]
activity at 30 µM [2]: 69.5 ± 13%
activity at 30 µM [5]: 70.9 ± 15%

COc1cc(C(=O)OCCCN2CCCN(CCCOC(=O)c3cc(OC)c(OC)c(OC)c3)CC2)cc(OC)c1OC [Dilazep hydrochloride, dilazep hydrochloride]
activity at 30 µM [2]: 65.1 ± 5%
2° Screen (sea urchin) NAADP binding (% inhibition) [3]: −10.9 ± 8.1%
2° Screen (sea urchin) Ca^2+ release log(IC50) [1]: −5.03 ± 0.11
1° Screen (sea urchin) Ca^2+ release (% NAADP): peak NAADP-evoked Ca2+ release as % of control NAADP response [4]: 16.0 ± 3.0%
activity at 30 µM [5]: 69.6 ± 9%

COc1ccc2cc1Oc1ccc(cc1)C[C@H]1c3cc(c(OC)cc3CCN1C)Oc1c(O)c(OC)cc3c1[C@H](C2)N(C)CC3 [Fangchinoline]
Effect on size of cADPR-evoked Ca2+ transients (in words) [6]: lesser effects
Peak amplitude of NAADP-evoked Ca2+ release, % of control response [1]: 47 ± 2%
Effect on size of IP3-evoked Ca2+ transients (in words) (IP3-evoked Ca^2+ release): lesser effects

OCCN1CCN(CCCN2c3ccccc3Sc3ccc(C(F)(F)F)cc32)CC1 [Fluphenazine dihydrochloride, fluphenazine dihydrochloride]
activity at 30 µM [2]: 67.6 ± 14%
activity at 30 µM [5]: 69.8 ± 10%

Cl.Cl.c1ccc(CCCN2CCN(CCOC(c3ccccc3)c3ccccc3)CC2)cc1 [GBR-12935 dihydrochloride]
Counterscreen (human cells) Ca^2+ release (% GPN) [2]: 61.1 ± 15%
2° Screen (sea urchin) NAADP binding (% inhibition) [3]: 3.4 ± 3.3%
2° Screen (sea urchin) Ca^2+ release log(IC50) [1]: −4.90 ± 0.13
1° Screen (sea urchin) Ca^2+ release (% NAADP): peak NAADP-evoked Ca2+ release as % of control NAADP response [4]: 10.7 ± 7.0%
Counterscreen (human cells) LTR signal (% control) [5]: 67.5 ± 11%

Cl.Fc1ccc(C(OCCCc2c[nH]cn2)c2ccc(F)cc2)cc1 [IPFME, 3-(1H-Imidazol-4-yl)propyl di(p-fluorophenyl)methyl ether hydrochloride]
activity at 30 µM [2]: 51.3 ± 18%
2° Screen (sea urchin) NAADP binding (% inhibition) [3]: 2.9 ± 2.1%
2° Screen (sea urchin) Ca^2+ release log(IC50) [1]: −5.22 ± 0.08
1° Screen (sea urchin) Ca^2+ release (% NAADP): peak NAADP-evoked Ca2+ release as % of control NAADP response [4]: 13.7 ± 11%
activity at 30 µM [5]: 56.9 ± 8%

CC1(C)C(=O)N(CCN2CCC(C(=O)c3ccc(F)cc3)CC2)c2ccccc21.Cl [LY-310,762 hydrochloride]
Counterscreen (human cells) Ca^2+ release (% GPN) [2]: 108.1 ± 11%
2° Screen (sea urchin) NAADP binding (% inhibition) [3]: −2.8 ± 3.8%
2° Screen (sea urchin) Ca^2+ release log(IC50) [1]: −4.75 ± 0.05
1° Screen (sea urchin) Ca^2+ release (% NAADP): peak NAADP-evoked Ca2+ release as % of control NAADP response [4]: 16.3 ± 8.7%
Counterscreen (human cells) LTR signal (% control) [5]: 90.2 ± 8%

CCN(CC)CC#CCOC(=O)C(O)(c1ccccc1)C1CCCCC1 (stereo not shown) [Oxybutynin Chloride, oxybutynin chloride]
activity at 30 µM [2]: 62.1 ± 4%
activity at 30 µM [5]: 59.2 ± 9%

CCCCCCCCCC(=O)NC(CN1CCOCC1)C(O)c1ccccc1.Cl (stereo not shown) [PDMP, PDMP hydrochloride]
Effect on GPN-mobilizable Ca2+ and LysoTracker (LTR) staining (in words) [2]: no effect
Counterscreen (human cells) Ca^2+ release (% GPN) [2]: 91.4 ± 2%
2° Screen (sea urchin) NAADP binding (% inhibition) [3]: 6.0 ± 0.5%
2° Screen (sea urchin) Ca^2+ release log(IC50) [1]: −4.80 ± 0.05
1° Screen (sea urchin) Ca^2+ release (% NAADP): peak NAADP-evoked Ca2+ release as % of control NAADP response [4]: 18.3 ± 17%
Counterscreen (human cells) LTR signal (% control) [5]: 91.6 ± 13%

Cc1nc(N=Nc2ccc(S(=O)(=O)[O-])cc2S(=O)(=O)[O-])c(COP(=O)([O-])[O-])c(C=O)c1O.[Na+].[Na+].[Na+].[Na+] [PPADS, PPADS tetrasodium salt]
Counterscreen (human cells) Ca^2+ release (% GPN) [2]: 91.3 ± 16%
2° Screen (sea urchin) NAADP binding (% inhibition) [3]: 84.8 ± 1.6%
2° Screen (sea urchin) Ca^2+ release log(IC50) [1]: −5.27 ± 0.01
IC50 [1]: 5.4 ± 0.2 µM
Counterscreen (human cells) LTR signal (% control) [5]: 92.1 ± 7%

Cc1nc(N=Nc2cc(S(=O)(=O)O)c3cc([N+](=O)[O-])cc(S(=O)(=O)O)c3c2)c(COP(=O)(O)O)c(C=O)c1O [PPNDS]
1° Screen (sea urchin) Ca^2+ release (% NAADP): peak NAADP-evoked Ca2+ release as % of control NAADP response [4]: 22 ± 4%

CN1CCN(CCCN2c3ccccc3Sc3ccc(Cl)cc32)CC1 [Prochlorperazine dimaleate, prochlorperazine dimaleate salt]
activity at 30 µM [2]: 20.2 ± 17%
activity at 30 µM [5]: 24.3 ± 14%

CC(=O)SCC(Cc1ccccc1)C(=O)NCC(=O)OCc1ccccc1 (stereo not shown) [Racecadotril, racecadotril]
activity at 30 µM [2]: 110 ± 4%
Effect on GPN-mobilizable Ca2+ and LysoTracker (LTR) staining (in words) [2]: no effect
2° Screen (sea urchin) NAADP binding (% inhibition) [3]: −8.3 ± 0.2%
2° Screen (sea urchin) Ca^2+ release log(IC50) [1]: −5.80 ± 0.03
IC50 [1]: 1.6 ± 0.1 µM
1° Screen (sea urchin) Ca^2+ release (% NAADP): peak NAADP-evoked Ca2+ release as % of control NAADP response [4]: 11.5 ± 6.0%
activity at 30 µM [5]: 92.8 ± 3%

COc1ccc(CCCOC(Cn2ccnc2)c2ccc(OC)cc2)cc1 (stereo not shown) [SKF 96,365, SKF 96365 hydrochloride]
activity at 30 µM [2]: 98.1 ± 6%
Effect on GPN-mobilizable Ca2+ and LysoTracker (LTR) staining (in words) [2]: no effect
2° Screen (sea urchin) NAADP binding (% inhibition) [3]: −5.3 ± 5.7%
2° Screen (sea urchin) Ca^2+ release log(IC50) [1]: −5.29 ± 0.06
1° Screen (sea urchin) Ca^2+ release (% NAADP): peak NAADP-evoked Ca2+ release as % of control NAADP response [4]: 6.3 ± 4.5%
activity at 30 µM [5]: 98.5 ± 5%

OCc1cc(C(O)CNCCCCCCOCCCCc2ccccc2)ccc1O (stereo not shown) [Salmeterol xinafolate, salmeterol xinafoate]
activity at 30 µM [2]: 97.4 ± 5%
2° Screen (sea urchin) NAADP binding (% inhibition) [3]: −2.3 ± 13.6%
2° Screen (sea urchin) Ca^2+ release log(IC50) [1]: −4.94 ± 0.04
1° Screen (sea urchin) Ca^2+ release (% NAADP): peak NAADP-evoked Ca2+ release as % of control NAADP response [4]: 18.7 ± 12%
activity at 30 µM [5]: 97.3 ± 7%

CCN(CC)CCCCCCCCOC(=O)c1cc(OC)c(OC)c(OC)c1.Cl [TMB-8 hydrochloride]
Counterscreen (human cells) Ca^2+ release (% GPN) [2]: 68.8 ± 5%
2° Screen (sea urchin) NAADP binding (% inhibition) [3]: −16.6 ± 10.3%
2° Screen (sea urchin) Ca^2+ release log(IC50) [1]: −5.12 ± 0.06
1° Screen (sea urchin) Ca^2+ release (% NAADP): peak NAADP-evoked Ca2+ release as % of control NAADP response [4]: 18.3 ± 3.2%
Counterscreen (human cells) LTR signal (% control) [5]: 71.8 ± 8%

CSc1ccc2c(c1)N(CCC1CCCCN1C)c1ccccc1S2 (stereo not shown) [Thioridazine hydrochloride, thioridazine hydrochloride]
activity at 30 µM [2]: 20.5 ± 12%
activity at 30 µM [5]: 26.2 ± 18%

CN1CCN(CCCN2c3ccccc3Sc3ccc(C(F)(F)F)cc32)CC1 [Trifluoperazine dihydrochloride, trifluoperazine dihydrochloride]
activity at 30 µM [2]: 5.8 ± 11%
2° Screen (sea urchin) NAADP binding (% inhibition) [3]: −13.7 ± 13.7%
2° Screen (sea urchin) Ca^2+ release log(IC50) [1]: −5.13 ± 0.10
1° Screen (sea urchin) Ca^2+ release (% NAADP): peak NAADP-evoked Ca2+ release as % of control NAADP response [4]: 19.7 ± 15%
activity at 30 µM [5]: 15.2 ± 9%

CO/C1=C\C(C)=C\[C@@H](C)[C@@H](O)[C@@H](C)C/C(C)=C/C=C/[C@H](OC)[C@@H]([C@@H](C)[C@@H](O)[C@H](C)[C@@]2(O)C[C@@H](O)[C@H](C)[C@@H](C(C)C)O2)OC1=O [bafilomycin, bafilomycin A1]
Effect on GPN-mobilizable Ca2+ and LysoTracker (LTR) staining (in words) [2]: penetrant effects

COc1ccc([C@@H]2Sc3ccccc3N(CCN(C)C)C(=O)[C@@H]2OC(C)=O)cc1 [diltiazem]
Concentration acting as TPC pore blocker [7]: < 10 u M

O=C1C[C@@H](c2ccc(O)cc2)Oc2cc(O)cc(O)c21 [naringenin]
IC50 [7]: ~180 µM

COC(=O)C1=C(C)NC(C)=C(C(=O)OC)C1c1ccccc1[N+](=O)[O-] [nifedipine]
Concentration acting as TPC pore blocker [7]: < 10 u M

O=C1NC(=O)C(c2ccccc2)(c2ccccc2)N1 [phenytoin]
Effect on NAADP-evoked Ca2+ signal in primary screen (in words) [4]: potentiation

C/C=C(/C)C(=O)O[C@H]1C(C)=C2[C@H]([C@@H]1OC(=O)CCCCCCC)[C@@](C)(OC(C)=O)C[C@H](OC(=O)CCC)[C@@]1(O)[C@H]2OC(=O)[C@@]1(C)O [thapsigargin]
Effect on NAADP-evoked Ca2+ signal in primary screen (in words) [4]: did not abrogate NAADP responsiveness

ST-148
Counterscreen (human cells) Ca^2+ release (% GPN) [2]: 66.6 ± 5%
2° Screen (sea urchin) NAADP binding (% inhibition) [3]: 0.2 ± 4.3%
2° Screen (sea urchin) Ca^2+ release log(IC50) [1]: −4.80 ± 0.08
1° Screen (sea urchin) Ca^2+ release (% NAADP): peak NAADP-evoked Ca2+ release as % of control NAADP response [4]: 16.7 ± 3.5%
Counterscreen (human cells) LTR signal (% control) [5]: 69.8 ± 13%
